Laboratory results: ChEMBL document CHEMBL4364302, “4-Aminoquinoline-based compounds as antileishmanial agents that inhibit the energy metabolism of Leishmania” (Eur J Med Chem, 2019)

How the values were obtained:
Leishmania tropica [1] = assay: Antileishmanial activity against intracellular amastigote stage of Leishmania tropica MHOM/IT/2012/ISS3130 assessed as reduction in parasite viability measured after 72 hrs by MTT assay; assay type: functional, organism-based; details: MHOM/IT/2012/ISS3130, 72 h
Leishmania braziliensis [2] = assay: Antileishmanial activity against promastigote stage of Leishmania braziliensis MHOM/IT/2006/ISS2848 assessed as reduction in parasite viability measured after 72 hrs by MTT assay; assay type: functional, organism-based; details: MHOM/IT/2006/ISS2848, 72 h
Leishmania infantum [3] = assay: Antileishmanial activity against promastigote stage of Leishmania infantum MHOM/TN/80/IPT1 assessed as reduction in parasite viability measured after 72 hrs by MTT assay; assay type: functional, organism-based; details: MHOM/TN/80/IPT1, 72 h
Leishmania braziliensis [4] = assay: Antileishmanial activity against intracellular amastigote stage of Leishmania braziliensis MHOM/IT/2006/ISS2848 assessed as reduction in parasite viability measured after 72 hrs by MTT assay; assay type: functional, organism-based; details: MHOM/IT/2006/ISS2848, 72 h
Leishmania tropica [5] = assay: Antileishmanial activity against promastigote stage of Leishmania tropica MHOM/IT/2012/ISS3130 assessed as reduction in parasite viability measured after 72 hrs by MTT assay; assay type: functional, organism-based; details: MHOM/IT/2012/ISS3130, 72 h
Leishmania infantum [6] = assay: Antileishmanial activity against miltefosine resistant promastigote stage of Leishmania infantum LEM5159 isolate measured after 72 hrs by MTT assay; assay type: functional, organism-based
HMEC-1 = assay: Cytotoxicity against human HMEC1 cells assessed as cell viability measured after 72 hrs by MTT assay; assay type: cell-based; details: HMEC-1, 72 h
Leishmania infantum [7] = assay: Antileishmanial activity against antimony resistant intracellular amastigote stage of Leishmania infantum LEM3323 isolate measured after 72 hrs by MTT assay; assay type: functional, organism-based
Leishmania infantum [8] = assay: Antileishmanial activity against promastigote stage of Leishmania infantum LEM3049 isolate measured after 72 hrs by MTT assay; assay type: functional, organism-based
BMDM = assay: Cytotoxicity against mouse BMDM cells assessed as cell viability measured after 72 hrs by MTT assay; assay type: cell-based
Leishmania infantum [9] = assay: Antileishmanial activity against antimony resistant promastigote stage of Leishmania infantum LEM3323 isolate measured after 72 hrs by MTT assay; assay type: functional, organism-based
[10] = Selectivity index, ratio of IC50 for mouse BMDM cells to IC50 for intracellular amastigote stage of Leishmania infantum; assay type: toxicity, cell-based; details: read-out: Ratio IC50
[11] = Selectivity index, ratio of IC50 for human THP1 cells to IC50 for miltefosine and paromomycin resistant intracellular amastigote stage of Leishmania infantum LEM2126 isolate; assay type: toxicity, cell-based; details: read-out: Ratio IC50
Leishmania infantum [12] = assay: Antileishmanial activity against miltefosine and paromomycin resistant promastigote stage of Leishmania infantum LEM2126 isolate measured after 72 hrs by MTT assay; assay type: functional, organism-based
[13] = Selectivity index, ratio of IC50 for human THP1 cells to IC50 for intracellular amastigote stage of Leishmania infantum LEM3049 isolate; assay type: toxicity, cell-based; details: read-out: Ratio IC50
[14] = Selectivity index, ratio of IC50 for human CFPAC-1 cells to IC50 for intracellular amastigote stage of Leishmania infantum; assay type: toxicity, cell-based; details: read-out: Ratio IC50
Leishmania infantum [15] = assay: Antileishmanial activity against intracellular amastigote stage of Leishmania infantum MHOM/TN/80/IPT1 assessed as reduction in parasite viability measured after 72 hrs by MTT assay; assay type: functional, organism-based; details: MHOM/TN/80/IPT1, 72 h
[16] = Selectivity index, ratio of IC50 for human THP1 cells to IC50 for antimony resistant intracellular amastigote stage of Leishmania infantum LEM3323 isolate; assay type: toxicity, cell-based; details: read-out: Ratio IC50
THP-1 = assay: Cytotoxicity against human THP1 cells assessed as cell viability measured after 72 hrs by MTT assay; assay type: cell-based; details: THP-1, 72 h
[17] = Selectivity index, ratio of IC50 for human HMEC1 cells to IC50 for intracellular amastigote stage of Leishmania infantum; assay type: toxicity, cell-based; details: read-out: Ratio IC50
Leishmania infantum [18] = assay: Antileishmanial activity against miltefosine and paromomycin resistant intracellular amastigote stage of Leishmania infantum LEM2126 isolate measured after 72 hrs by MTT assay; assay type: functional, organism-based
Leishmania infantum [19] = assay: Antileishmanial activity against intracellular amastigote stage of Leishmania infantum LEM3049 isolate measured after 72 hrs by MTT assay; assay type: functional, organism-based
[20] = Selectivity index, ratio of IC50 for human THP1 cells to IC50 for miltefosine resistant intracellular amastigote stage of Leishmania infantum LEM5159 isolate; assay type: toxicity, cell-based; details: read-out: Ratio IC50
Leishmania infantum [21] = assay: Antileishmanial activity against miltefosine resistant intracellular amastigote stage of Leishmania infantum LEM5159 isolate measured after 72 hrs by MTT assay; assay type: functional, organism-based
[22] = Selectivity index, ratio of IC50 for human THP1 cells to IC50 for intracellular amastigote stage of Leishmania infantum; assay type: toxicity, cell-based; details: read-out: Ratio IC50
CFPAC-1 = assay: Cytotoxicity against human CFPAC-1 cells assessed as cell viability measured after 72 hrs by MTT assay; assay type: cell-based; details: CFPAC-1, 72 h

CCCCCCCCCCCCCCCCOP(=O)([O-])OCC[N+](C)(C)C [MILTEFOSINE]
IC50 (Leishmania tropica [1]): 1150 nM
IC50 (Leishmania braziliensis [2]): 7590 nM
IC50 (Leishmania infantum [3]): 1430 nM
IC50 (Leishmania braziliensis [4]): 890 nM
IC50 (Leishmania tropica [5]): 10400 nM

C[C@@H]1[C@H](O)[C@@H](C)/C=C/C=C/C=C/C=C/C=C/C=C/C=C/[C@H](O[C@@H]2O[C@H](C)[C@@H](O)[C@H](N)[C@@H]2O)C[C@@H]2O[C@](O)(C[C@@H](O)C[C@@H](O)[C@H](O)CC[C@@H](O)C[C@@H](O)CC(=O)O[C@H]1C)C[C@H](O)[C@H]2C(=O)O [AMPHOTERICIN B]
IC50 (Leishmania tropica [1]): 160 nM
IC50 (Leishmania infantum [6]): 50 nM
IC50 (HMEC-1): > 10000 nM
IC50 (Leishmania infantum [7]): 180 nM
IC50 (Leishmania infantum [8]): 60 nM
IC50 (BMDM): > 10000 nM
IC50 (Leishmania infantum [9]): 70 nM
IC50 (Leishmania braziliensis [2]): 183 nM
selectivity ratio [10]: > 50
selectivity ratio [11]: 174
IC50 (Leishmania infantum [12]): 100 nM
selectivity ratio [13]: 164
selectivity ratio [14]: > 50
IC50 (Leishmania infantum [3]): 90 to 150 nM
IC50 (Leishmania infantum [15]): 180 nM
selectivity ratio [16]: 155
IC50 (THP-1): > 10000 nM
selectivity ratio [17]: > 50
IC50 (Leishmania infantum [18]): 160 nM
IC50 (Leishmania braziliensis [4]): 200 nM
IC50 (Leishmania infantum [19]): 170 nM
selectivity ratio [20]: 174
IC50 (Leishmania infantum [21]): 160 nM
selectivity ratio [22]: > 50
IC50 (Leishmania tropica [5]; read-out: IC50): 120 nM
IC50 (CFPAC-1): > 10000 nM

NC[C@@H]1O[C@H](O[C@H]2[C@@H](O)[C@H](O[C@@H]3[C@@H](O)[C@H](N)C[C@H](N)[C@H]3O[C@H]3O[C@H](CO)[C@@H](O)[C@H](O)[C@H]3N)O[C@@H]2CO)[C@H](N)[C@@H](O)[C@@H]1O [PAROMOMYCIN]
IC50 (Leishmania infantum [3]): 427000 nM
